For one assay, the target named is KRas G12D (Homo sapiens, UniProt P01116, G12D). Put plainly: biochemical. Particulars: Binding to KRas (IC50 nM) G12D, TR-FRET displacement, KRas G12D. (In general: In TR-FRET formats the signal depends on donor and acceptor labels being close together.)
In the next assay the target is KRas G12V (Homo sapiens, UniProt P01116, G12V). The assay is described as follows: biochemical. The note with it: Binding to KRas (IC50 nM) G12V, TR-FRET displacement, KRas G12V.
Sequence of KRas G12V (P01116 1-169 isoform P01116-2 G12V): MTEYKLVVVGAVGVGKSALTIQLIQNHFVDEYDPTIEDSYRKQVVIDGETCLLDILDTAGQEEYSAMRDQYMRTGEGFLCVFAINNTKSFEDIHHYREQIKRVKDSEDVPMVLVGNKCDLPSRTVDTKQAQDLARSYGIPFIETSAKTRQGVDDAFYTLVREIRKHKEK

Sequence of KRas G12D (P01116 1-169 isoform P01116-2 G12D): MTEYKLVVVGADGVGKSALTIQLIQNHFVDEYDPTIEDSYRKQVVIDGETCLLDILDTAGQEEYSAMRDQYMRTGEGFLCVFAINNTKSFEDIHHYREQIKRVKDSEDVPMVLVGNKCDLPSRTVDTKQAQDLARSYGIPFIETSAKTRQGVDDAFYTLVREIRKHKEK

A word on the IC50: it is the point on the concentration scale where inhibition reaches its midpoint. Low readings indicate higher potency, high ones lower potency. As for `CCc1cccc2cccc(N3CCc4c(nc(OCC5(CN(C)C)CC5)nc4NCCc4nncn4C(C)C)C3)c12` [Example 571, 2-((1-((dimethylamino)methyl)cyclopropyl)methoxy)-7-(8-ethylnaphthalen-1-yl)-N-(2-(4-isopropyl-4H-1,2,4-triazol-3-yl)ethyl)-5,6,7,8-tetrahydropyrido[3,4-d]pyrimidin-4-amine], the IC50 is 75700 nM at KRas G12D and 6720 nM at KRas G12V.

Regarding `CCc1cccc2cccc(N3CCc4c(nc(OCC5(CN(C)C)CC5)nc4NCCc4nnc5ccccn45)C3)c12` [Example 572, N-(2-([1,2,4]triazolo[4,3-a]pyridin-3-yl)ethyl)-2-((1-((dimethylamino)methyl)cyclopropyl)methoxy)-7-(8-ethylnaphthalen-1-yl)-5,6,7,8-tetrahydropyrido[3,4-d]pyrimidin-4-amine], the IC50 on KRas G12D was found to be 89400 nM; at KRas G12V it was 4560 nM.

With `CCc1cccc2cccc(N3CCc4c(nc(OCC5(CN(C)C)CC5)nc4NCC4(NC(=O)OC(C)(C)C)CCOC4)C3)c12` (centres unmarked) [Example 573, tert-butyl (3-(((2-((1-((dimethylamino)methyl)cyclopropyl)methoxy)-7-(8-ethylnaphthalen-1-yl)-5,6,7,8-tetrahydropyrido[3,4-d]pyrimidin-4-yl)amino)methyl)tetrahydrofuran-3-yl)carbamate], the IC50 at KRas G12D is 96000 nM; on KRas G12V, 7840 nM.

As to `CCc1cccc2cccc(N3CCc4c(nc(OCC5(CN(C)C)CC5)nc4N4CCCOC(CC)C4)C3)c12` (centres unmarked) [Example 663, 1-(1-(((4-(2-ethyl-1,4-oxazepan-4-yl)-7-(8-ethylnaphthalen-1-yl)-5,6,7,8-tetrahydropyrido[3,4-d]pyrimidin-2-yl)oxy)methyl)cyclopropyl)-N,N-dimethylmethanamine], the values for the IC50 at KRas G12D and on KRas G12V were 2310 nM and 1420 nM, respectively.

On to `CCc1cccc2cccc(N3CCc4c(nc(OCC5(CN(C)C)CC5)nc4N4CCOCC(C)C4)C3)c12` (centres unmarked) [Example 664, 1-(1-(((7-(8-ethylnaphthalen-1-yl)-4-(6-methyl-1,4-oxazepan-4-yl)-5,6,7,8-tetrahydropyrido[3,4-d]pyrimidin-2-yl)oxy)methyl)cyclopropyl)-N,N-dimethylmethanamine], for which the IC50 at KRas G12D worked out at 254 nM; at KRas G12V, 317 nM.

Regarding `CCc1cccc2cccc(N3CCc4c(nc(OCC5(CN(C)C)CC5)nc4N4CCOCC(O)C4)C3)c12` (centres unmarked) [Example 666, 4-(2-((1-((dimethylamino)methyl)cyclopropyl)methoxy)-7-(8-ethylnaphthalen-1-yl)-5,6,7,8-tetrahydropyrido[3,4-d]pyrimidin-4-yl)-1,4-oxazepan-6-ol], the IC50 at KRas G12D was determined as 340 nM; on KRas G12V, 238 nM.

For the compound `CCc1cccc2cccc(N3CCc4c(nc(OCC5(CN(C)C)CC5)nc4N4CCCOC(C)C4)C3)c12` (centres unmarked) [Example 667, 1-(1-(((7-(8-ethylnaphthalen-1-yl)-4-(2-methyl-1,4-oxazepan-4-yl)-5,6,7,8-tetrahydropyrido[3,4-d]pyrimidin-2-yl)oxy)methyl)cyclopropyl)-N,N-dimethylmethanamine], the values for the IC50 on KRas G12D and at KRas G12V were 223 nM and 243 nM, respectively.

For `CCc1cccc2cccc(N3CCc4c(nc(OCC5(CN(C)C)CC5)nc4N(C)Cc4nncn4C)C3)c12` [Example 668, 2-((1-((dimethylamino)methyl)cyclopropyl)methoxy)-7-(8-ethylnaphthalen-1-yl)-N-methyl-N-((4-methyl-4H-1,2,4-triazol-3-yl)methyl)-5,6,7,8-tetrahydropyrido[3,4-d]pyrimidin-4-amine], the values for the IC50 on KRas G12D and on KRas G12V were 8990 nM and 2050 nM, respectively.

As for `CCc1cccc2cccc(N3CCc4c(nc(OCC5(CN(C)C)CC5)nc4N4CCCOCC4)C3)c12` [Example 669, 1-(1-(((7-(8-ethylnaphthalen-1-yl)-4-(1,4-oxazepan-4-yl)-5,6,7,8-tetrahydropyrido[3,4-d]pyrimidin-2-yl)oxy)methyl)cyclopropyl)-N,N-dimethylmethanamine], the IC50 was 190 nM at KRas G12D and 199 nM at KRas G12V.

In the case of `CCc1cccc2cccc(N3CCc4c(nc(OCC5(CN(C)C)CC5)nc4N4CCOCC(CC)C4)C3)c12` (centres unmarked) [Example 672, 1-(1-(((4-(6-ethyl-1,4-oxazepan-4-yl)-7-(8-ethylnaphthalen-1-yl)-5,6,7,8-tetrahydropyrido[3,4-d]pyrimidin-2-yl)oxy)methyl)cyclopropyl)-N,N-dimethylmethanamine], the results for the IC50 on KRas G12D and on KRas G12V were 1280 nM and 1440 nM, respectively.

For `CCc1cccc2cccc(N3CCc4c(nc(OCC5(CN(C)C)CC5)nc4NCc4ncn(C(C)C)n4)C3)c12` [Example 673, 2-((1-((dimethylamino)methyl)cyclopropyl)methoxy)-7-(8-ethylnaphthalen-1-yl)-N-((1-isopropyl-1H-1,2,4-triazol-3-yl)methyl)-5,6,7,8-tetrahydropyrido[3,4-d]pyrimidin-4-amine], the IC50 came to 8420 nM at KRas G12D and 2440 nM at KRas G12V.

Consider `CCc1cccc2cccc(N3CCc4c(nc(OCC5(CN(C)C)CC5)nc4N4CCOCC(CO)C4)C3)c12` (centres unmarked) [Example 678, (4-(2-((1-((dimethylamino)methyl)cyclopropyl)methoxy)-7-(8-ethylnaphthalen-1-yl)-5,6,7,8-tetrahydropyrido[3,4-d]pyrimidin-4-yl)-1,4-oxazepan-6-yl)methanol], for which the IC50 at KRas G12D was 197 nM; on KRas G12V, 210 nM.

Take `CCc1cccc2cccc(N3CCc4c(nc(OCC5(CN(C)C)CC5)nc4N4CCCC(c5c[nH]nn5)C4)C3)c12` (centres unmarked) [Example 679, 1-(1-(((4-(3-(1H-1,2,3-triazol-4-yl)piperidin-1-yl)-7-(8-ethylnaphthalen-1-yl)-5,6,7,8-tetrahydropyrido[3,4-d]pyrimidin-2-yl)oxy)methyl)cyclopropyl)-N,N-dimethylmethanamine]: the values for the IC50 at KRas G12D and at KRas G12V were 5890 nM and 3190 nM, respectively.

In the case of `CCc1cccc2cccc(N3CCc4c(nc(OCC5(CN(C)C)CC5)nc4N4CCCC(c5c[nH]cn5)C4)C3)c12` (centres unmarked) [Example 680, 1-(1-(((4-(3-(1H-imidazol-4-yl)piperidin-1-yl)-7-(8-ethylnaphthalen-1-yl)-5,6,7,8-tetrahydropyrido[3,4-d]pyrimidin-2-yl)oxy)methyl)cyclopropyl)-N,N-dimethylmethanamine], the values for the IC50 at KRas G12D and at KRas G12V were 5490 nM and 3130 nM, respectively.

Turning to `CCc1cccc2cccc(N3CCc4c(nc(OCC5(CN(C)C)CC5)nc4N4CCCC(c5ccon5)C4)C3)c12` (centres unmarked) [Example 681, 1-(1-(((7-(8-ethylnaphthalen-1-yl)-4-(3-(isoxazol-3-yl)piperidin-1-yl)-5,6,7,8-tetrahydropyrido[3,4-d]pyrimidin-2-yl)oxy)methyl)cyclopropyl)-N,N-dimethylmethanamine], the IC50 came out at 3830 nM on KRas G12D and 3220 nM at KRas G12V.

With `CCc1cccc2cccc(N3CCc4c(nc(OCC5(CN(C)C)CC5)nc4N4CCCC(n5cccn5)C4)C3)c12` (centres unmarked) [Example 682, 1-(1-(((4-(3-(1H-pyrazol-1-yl)piperidin-1-yl)-7-(8-ethylnaphthalen-1-yl)-5,6,7,8-tetrahydropyrido[3,4-d]pyrimidin-2-yl)oxy)methyl)cyclopropyl)-N,N-dimethylmethanamine], the IC50 on KRas G12D came out at 1610 nM; on KRas G12V it was 1760 nM.

In the case of `CCc1cccc2cccc(N3CCc4c(nc(OCC5(CN(C)C)CC5)nc4N4CCCC(c5ncc[nH]5)C4)C3)c12` (centres unmarked) [Example 685, 1-(1-(((4-(3-(1H-imidazol-2-yl)piperidin-1-yl)-7-(8-ethylnaphthalen-1-yl)-5,6,7,8-tetrahydropyrido[3,4-d]pyrimidin-2-yl)oxy)methyl)cyclopropyl)-N,N-dimethylmethanamine], the IC50 on KRas G12D was 1650 nM; at KRas G12V it was 1860 nM.

For the compound `CCc1cccc2cccc(N3CCc4c(nc(OCC5(CN(C)C)CC5)nc4NCc4nnc5n4CCCCC5)C3)c12` [Example 686, 2-((1-((dimethylamino)methyl)cyclopropyl)methoxy)-7-(8-ethylnaphthalen-1-yl)-N-((6,7,8,9-tetrahydro-5H-[1,2,4]triazolo[4,3-a]azepin-3-yl)methyl)-5,6,7,8-tetrahydropyrido[3,4-d]pyrimidin-4-amine], the IC50 turned out to be 5250 nM on KRas G12D and 4520 nM on KRas G12V.

With `CCc1cccc2cccc(N3CCc4c(nc(OCC5(CN(C)C)CC5)nc4N4CCCC(c5nc(C)c(C)[nH]5)C4)C3)c12` (centres unmarked) [Example 687, 1-(1-(((4-(3-(4,5-dimethyl-1H-imidazol-2-yl)piperidin-1-yl)-7-(8-ethylnaphthalen-1-yl)-5,6,7,8-tetrahydropyrido[3,4-d]pyrimidin-2-yl)oxy)methyl)cyclopropyl)-N,N-dimethylmethanamine], the IC50 at KRas G12D came to 10800 nM; on KRas G12V it was 6230 nM.

Regarding `CCc1cccc2cccc(N3CCc4c(nc(OCC5(CN(C)C)CC5)nc4N4CCCC(c5ccn(C)n5)C4)C3)c12` (centres unmarked) [Example 689, 1-(1-(((7-(8-ethylnaphthalen-1-yl)-4-(3-(1-methyl-1H-pyrazol-3-yl)piperidin-1-yl)-5,6,7,8-tetrahydropyrido[3,4-d]pyrimidin-2-yl)oxy)methyl)cyclopropyl)-N,N-dimethylmethanamine], the IC50 on KRas G12D came out at 7420 nM; at KRas G12V, 4310 nM.

Turning to `CCc1cccc2cccc(N3CCc4c(nc(OCC5(CN(C)C)CC5)nc4N4CCCC(c5nc(=O)[nH][nH]5)C4)C3)c12` (centres unmarked) [Example 690, 5-(1-(2-((1-((dimethylamino)methyl)cyclopropyl)methoxy)-7-(8-ethylnaphthalen-1-yl)-5,6,7,8-tetrahydropyrido[3,4-d]pyrimidin-4-yl)piperidin-3-yl)-1,2-dihydro-3H-1,2,4-triazol-3-one], the values for the IC50 on KRas G12D and at KRas G12V were 5440 nM and 1360 nM, respectively.

In the case of `CCc1cccc2cccc(N3CCc4c(nc(OCC5(CN(C)C)CC5)nc4NCc4nnc(C5CCOC5)[nH]4)C3)c12` (centres unmarked) [Example 691, 2-((1-((dimethylamino)methyl)cyclopropyl)methoxy)-7-(8-ethylnaphthalen-1-yl)-N-((5-(tetrahydrofuran-3-yl)-4H-1,2,4-triazol-3-yl)methyl)-5,6,7,8-tetrahydropyrido[3,4-d]pyrimidin-4-amine], the IC50 is 7300 nM on KRas G12D and 5300 nM at KRas G12V.

The values above are taken from patent publication US20250368649A1, “TETRAHYDROPYRIDOPYRIMIDINE PAN-KRAS INHIBITORS” (Mirati Therapeutics, Inc., priority 2022, published 2025).
